# Assay results taken from patent US20240383955A1, “MODIFIED ANTIMICROBIAL PEPTIDES” (priority 2021, published 2024).
# Bridge positions count the residues as written; N and C are the ends. Ends that are not written are not given here. Peptide text beside a SMILES is read from it.
# Legend:
# Botrytis cinerea = settings: Table 18
# B. cinerea = test: Semi-in planta drop inoculation assay on detached leaves of N. benthamiana, gray mold symptoms; type: in vivo, B. cinerea on N. benthamiana; settings: 48 h
Compound,MIC (SFM + 2 mM CaCl2) (Botrytis cinerea) [µM],MIC (SFM + 100 mM KCl) (Botrytis cinerea) [µM],MIC (SFM + 100 mM NaCl) (Botrytis cinerea) [µM],MIC SFM (Botrytis cinerea) [µM],gray mold symptoms (B. cinerea),"effectiveness in reducing gray mold disease symptoms (B. cinerea; peptide tested at 1.5 μM, 3 μM and 6 μM)",gray mold symptoms (B. cinerea; peptide at 3 μM and 6 μM)
CC[C@H](C)[C@@H]1NC(=O)[C@H](CCCNC(=N)N)NC(=O)[C@@H](NC(=O)[C@H](CCCNC(=N)N)NC(=O)CNC(=O)[C@@H](N)CO)CSSC[C@@H](C(N)=O)NC(=O)[C@H](CC(N)=O)NC(=O)[C@H](CCCCN)NC(=O)[C@H]([C@@H](C)O)NC(=O)[C@H](Cc2ccccc2)NC(=O)[C@H](Cc2ccc(O)cc2)NC(=O)[C@H](Cc2c[nH]c3ccccc23)NC(=O)[C@H](CCCNC(=N)N)NC(=O)[C@H](Cc2ccccc2)NC(=O)[C@H](CC(C)C)NC1=O [GMA1C_V3] (H-SGRCRILFRWYFTKNC-NH2; disulfide 4-16),6,>12,3,1.5,–,–,–
C[C@H](NC(=O)CN)C(=O)N[C@H]1CSSC[C@@H](C(N)=O)NC(=O)[C@H](CCCCN)NC(=O)[C@H](CCCCN)NC(=O)[C@H](Cc2ccc(O)cc2)NC(=O)[C@H](Cc2c[nH]c3ccccc23)NC(=O)[C@H](Cc2ccccc2)NC(=O)[C@H](Cc2c[nH]c3ccccc23)NC(=O)[C@H](C)NC(=O)[C@H](Cc2ccccc2)NC(=O)CNC(=O)[C@H](Cc2ccccc2)NC(=O)CNC(=O)[C@H](CCC(N)=O)NC(=O)[C@H](CCCNC(=N)N)NC(=O)[C@H](Cc2c[nH]cn2)NC1=O [GMA5CA_V3] (H-GACHRQGFGFAWFWYKKC-NH2; disulfide 3-18),>12,>12,>12,3,–,–,–
CC[C@H](C)[C@H](NC(=O)[C@H](CCCNC(=N)N)NC(=O)[C@H](CS)NC(=O)[C@H](CCCNC(=N)N)NC(=O)CNC(=O)[C@@H](N)CO)C(=O)N[C@@H](CC(C)C)C(=O)N[C@@H](Cc1ccccc1)C(=O)N[C@@H](CCCNC(=N)N)C(=O)N[C@@H](CS)C(=O)N[C@@H](Cc1ccccc1)C(=O)N[C@@H](CS)C(=O)N[C@H](C(=O)N[C@@H](CCCCN)C(=O)N[C@@H](CC(N)=O)C(=O)N[C@@H](CS)C(N)=O)[C@@H](C)O [GMA1C_V1] (H-SGRCRILFRCFCTKNC-NH2; N-terminus assumed),–,–,–,–,failed to reduce disease symptoms,–,–
"CC(C)C[C@H](NC(=O)[C@H](CS)NC(=O)[C@H](C)NC(=O)CN)C(=O)N[C@@H](CCCCN)C(=O)N[C@@H](CC(N)=O)C(=O)N[C@@H](CCCNC(=N)N)C(=O)N[C@@H](Cc1c[nH]cn1)C(=O)N[C@@H](CO)C(=O)N[C@@H](CCCCN)C(=O)N[C@@H](Cc1c[nH]cn1)C(=O)N[C@@H](Cc1ccc(O)cc1)C(=O)NCC(=O)N[C@@H](CS)C(=O)N[C@@H](Cc1ccc(O)cc1)C(=O)N[C@@H](CS)C(=O)N[C@@H](Cc1ccc(O)cc1)C(=O)N[C@@H](Cc1ccc(O)cc1)C(=O)N[C@@H](CCCNC(=N)N)C(=O)N[C@@H](Cc1c[nH]cn1)C(=O)N[C@@H](CS)C(=O)N[C@@H](Cc1ccc(O)cc1)C(N)=O [GMAOe1C_WT, reference compound] (H-GACLKNRHSKHYGCYCYYRHCY-NH2; N-terminus assumed)",–,–,–,–,–,only effective at 6 μM,–
GACLKNRHSKHYGWFWYYRHCY-NH2 (disulfide 3-21 (inferred)) [GMAOe1C_V2],–,–,–,–,–,–,completely abrogated gray mold symptoms
C[C@H](NC(=O)CN)C(=O)N[C@H]1CSSC[C@@H](C(N)=O)NC(=O)[C@H](CCCCN)NC(=O)[C@H](CCCCN)NC(=O)[C@H](Cc2ccc(O)cc2)NC(=O)[C@H](Cc2ccccc2)NC(=O)[C@H](Cc2ccccc2)NC(=O)[C@H](Cc2ccccc2)NC(=O)[C@H](C)NC(=O)[C@H](Cc2ccccc2)NC(=O)CNC(=O)[C@H](Cc2ccccc2)NC(=O)CNC(=O)[C@H](CCC(N)=O)NC(=O)[C@H](CCCNC(=N)N)NC(=O)[C@H](Cc2c[nH]cn2)NC1=O [GMA5CA_V4] (H-GACHRQGFGFAFFFYKKC-NH2; disulfide 3-18),>12,>12,>12,3,–,–,–
